As usually defined, the EC50 is the concentration giving half of the maximal effect. Low values mean a more potent agent, high ones a less potent agent.

For the test, the target named is AMPK. The experiment in a line: AMPK activation, enzyme-linked immunosorbent assay. It counts as biochemical. The settings on record: Table 8, compounds of Table 1. Here is the method:
Compounds of Table 1 were assayed for their ability to activate AMPK using an enzyme-linked immunosorbent assay.
Compounds of Table 2 were assayed for their ability to activate AMPK using an enzyme-linked immunosorbent assay.
Compounds of Table 3 were assayed for their ability to activate AMPK using an enzyme-linked immunosorbent assay.
Compounds of Table 4 were assayed for their ability to activate AMPK using an enzyme-linked immunosorbent assay.
Compounds of Table 5 were assayed for their ability to activate AMPK using an enzyme-linked immunosorbent assay.
Compounds of Table 6 were assayed for their ability to activate AMPK using an enzyme-linked immunosorbent assay.
Compounds of Table 7 were assayed for their ability to activate AMPK using an enzyme-linked immunosorbent assay.
Compound `N#Cc1ccc(CN2CCC(NC(=O)c3cc(OC4CCN(c5ccc(C(F)(F)F)cc5)CC4)ccn3)CC2)cc1` [Compound 1-28, N-(1-(4-cyanobenzyl)piperidin-4-yl)-4-(1-(4-(trifluoromethyl)phenyl)piperidin-4-yloxy)picolinamide] yielded an EC50 of under 100 nM. Then `O=C(NC1CCN(Cc2ccc(F)cc2)CC1)c1cc(OC2CCN(c3ccc(C(F)(F)F)cc3)CC2)ccn1` [Compound 1-29, N-(1-(4-fluorobenzyl)piperidin-4-yl)-4-(1-(4-(trifluoromethyl)phenyl)piperidin-4-yloxy)picolinamide], with 100 to 500 nM; and `O=C(N[C@H]1CCN(Cc2ccncc2)C1)c1ccc(OC2CCN(c3ccc(C(F)(F)F)cc3)CC2)cn1` [Compound 1-30, (S)-N-(1-(pyridin-4-ylmethyl)pyrrolidin-3-yl)-5-(1-(4-(trifluoromethyl)phenyl)piperidin-4-yloxy)picolinamide], with under 100 nM. `N#Cc1ccc(CN2CC[C@H](NC(=O)c3ccc(OC4CCN(c5ccc(C(F)(F)F)cc5)CC4)cn3)C2)cc1` [Compound 1-31, (S)-N-(1-(4-cyanobenzyl)pyrrolidin-3-yl)-5-(1-(4-(trifluoromethyl)phenyl)piperidin-4-yloxy) picolinamide] gave an EC50 of under 100 nM. Then `O=C(N[C@H]1CCN(Cc2ccc(F)cc2)C1)c1ccc(OC2CCN(c3ccc(C(F)(F)F)cc3)CC2)cn1` [Compound 1-32, (S)-N-(1-(4-fluorobenzyl)pyrrolidin-3-yl)-5-(1-(4-(trifluoromethyl)phenyl)piperidin-4-yloxy) picolinamide], with 100 to 500 nM; and `N#Cc1ccc(CN2CC[C@@H](NC(=O)c3ccc(OC4CCN(c5ccc(C(F)(F)F)cc5)CC4)cn3)C2)cc1` [Compound 1-33, (R)-N-(1-(4-cyanobenzyl)pyrrolidin-3-yl)-5-(1-(4-(trifluoromethyl)phenyl)piperidin-4-yloxy) picolinamide], with 500 to 1000 nM; and `O=C(N[C@@H]1CCN(Cc2ccc(F)cc2)C1)c1ccc(OC2CCN(c3ccc(C(F)(F)F)cc3)CC2)cn1` [Compound 1-34, (R)-N-(1-(4-fluorobenzyl)pyrrolidin-3-yl)-5-(1-(4-(trifluoromethyl)phenyl)piperidin-4-yloxy) picolinamide], with 500 to 1000 nM. Then `N#Cc1ccc(CN2CCC(NC(=O)c3ccc(OC4CCN(c5ccc(C(F)(F)F)cc5)CC4)nc3)CC2)cc1` [Compound 1-35, N-(1-(4-cyanobenzyl)piperidin-4-yl)-6-(1-(4-(trifluoromethyl)phenyl)piperidin-4-yloxy) nicotinamide], with 100 to 500 nM; and `O=C(NC1CCN(CCc2ccccc2)CC1)c1ccc(OC2CCN(c3ccc(C(F)(F)F)cc3)CC2)cn1` [Compound 1-36, N-(1-phenethylpiperidin-4-yl)-5-(1-(4-(trifluoromethyl)phenyl)piperidin-4-yloxy) picolinamide], with 500 to 1000 nM. Then `O=C(NC1CCN(Cc2ccc3ccccc3c2)CC1)c1ccc(OC2CCN(c3ccc(C(F)(F)F)cc3)CC2)cn1` [Compound 1-37, N-(1-(naphthalen-2-ylmethyl)piperidin-4-yl)-5-(1-(4-(trifluoromethyl)phenyl)piperidin-4-yloxy)picolinamide], with 500 to 1000 nM; and `O=C(NC1CCN(Cc2ccccc2)CC1)c1ccc(OC2CCN(c3ccc(C(F)(F)F)cc3)CC2)cn1` [Compound 1-38, N-(1-benzylpiperidin-4-yl)-5-(1-(4-(trifluoromethyl)phenyl)piperidin-4-yloxy)picolinamide], with 1000 to 5000 nM. In turn, `CN(C)c1ccc(CN2CCC(NC(=O)c3ccc(OC4CCN(c5ccc(C(F)(F)F)cc5)CC4)cn3)CC2)cc1` [Compound 1-39, N-(1-(4-(dimethylamino)benzyl)piperidin-4-yl)-5-(1-(4-(trifluoromethyl)phenyl)piperidin-4-yloxy)picolinamide] registered an EC50 of 100 to 500 nM. `O=C(NC1CCN(Cc2ccc(N3CCOCC3)cc2)CC1)c1ccc(OC2CCN(c3ccc(C(F)(F)F)cc3)CC2)cn1` [Compound 1-40, N-(1-(4-morpholinobenzyl)piperidin-4-yl)-5-(1-(4-(trifluoromethyl)phenyl)piperidin-4-yloxy)picolinamide] had an EC50 of under 100 nM. The compound `N#Cc1ccc(CN2CC(NC(=O)c3ccc(OC4CCN(c5ccc(C(F)(F)F)cc5)CC4)cn3)C2)cc1` [Compound 1-41, N-(1-(4-cyanobenzyl)azetidin-3-yl)-5-(1-(4-(trifluoromethyl)phenyl)piperidin-4-yloxy)picolinamide] returned an EC50 of 100 to 500 nM.

In turn, `O=C(NC1CN(Cc2ccncc2)C1)c1ccc(OC2CCN(c3ccc(C(F)(F)F)cc3)CC2)cn1` [Compound 1-42, N-(1-(pyridin-4-ylmethyl)azetidin-3-yl)-5-(1-(4-(trifluoromethyl)phenyl)piperidin-4-yloxy)picolinamide] showed an EC50 of 1000 to 5000 nM. As for `O=C(NC1CCN(Cc2ccncc2)CC1)c1cccc(OC2CCN(c3ccc(C(F)(F)F)cc3)CC2)n1` [Compound 1-43, N-(1-(pyridin-4-ylmethyl)piperidin-4-yl)-6-(1-(4-(trifluoromethyl)phenyl)piperidin-4-yloxy)picolinamide], the EC50 was in the range of 1000 to 5000 nM. Then `O=C(NC1CCN(Cc2cncnc2)CC1)c1ccc(OC2CCN(c3ccc(C(F)(F)F)cc3)CC2)cn1` [Compound 1-44, N-(1-(pyrimidin-5-ylmethyl)piperidin-4-yl)-5-(1-(4-(trifluoromethyl)phenyl)piperidin-4-yloxy)picolinamide], with 100 to 500 nM.

`COC(=O)c1ccc(CN2CCC(NC(=O)c3ccc(OC4CCN(c5ccc(C(F)(F)F)cc5)CC4)nc3)CC2)cc1` [Compound 1-45, methyl 4-((4-(6-(1-(4-(trifluoromethyl)phenyl)piperidin-4-yloxy)nicotinamido)piperidin-1-yl)methyl)benzoate] returned an EC50 of over 10000 nM. `O=C(O)c1ccc(CN2CCC(NC(=O)c3ccc(OC4CCN(c5ccc(C(F)(F)F)cc5)CC4)nc3)CC2)cc1` [Compound 1-46, 4-((4-(6-(1-(4-(trifluoromethyl)phenyl)piperidin-4-yloxy)nicotinamido)piperidin-1-yl)methyl) benzoic acid]: the half-maximal effective concentration (EC50) fell in the range of 1000 to 5000 nM.

Regarding `O=C(NC1CCN(Cc2cn(C(c3ccccc3)(c3ccccc3)c3ccccc3)cn2)CC1)c1ccc(OC2CCN(c3ccc(C(F)(F)F)cc3)CC2)cn1` [Compound 1-47, 5-(1-(4-(trifluoromethyl)phenyl)piperidin-4-yloxy)-N-(1-((1-trityl-1H-imidazol-4-yl)methyl)piperidin-4-yl)picolinamide], the EC50 is 1000 to 5000 nM. In the case of `O=C(NC1CCN(Cc2c[nH]cn2)CC1)c1ccc(OC2CCN(c3ccc(C(F)(F)F)cc3)CC2)cn1` [Compound 1-48, N-(1-((1H-imidazol-4-yl)methyl)piperidin-4-yl)-5-(1-(4-(trifluoromethyl)phenyl)piperidin-4-yloxy)picolinamide], the EC50 was in the range of 1000 to 5000 nM. Then `CC(C)(C)OC(=O)NCCCNC(=O)c1ccc(OC2CCN(c3ccc(C(F)(F)F)cc3)CC2)cn1` [Compound 1-49, tert-butyl 3-(5-(1-(4-(trifluoromethyl)phenyl)piperidin-4-yloxy)picolinamido) propylcarbamate], with under 100 nM; and `O=C(NCCCNCc1ccncc1)c1ccc(OC2CCN(c3ccc(C(F)(F)F)cc3)CC2)cn1` [Compound 1-50, N-(3-(pyridin-4-ylmethylamino)propyl)-5-(1-(4-(trifluoromethyl)phenyl)piperidin-4-yloxy)picolinamide], with 1000 to 5000 nM; and `O=S(=O)(NC1CCN(Cc2ccncc2)CC1)c1ccc(OC2CCN(c3ccc(C(F)(F)F)cc3)CC2)nc1` [Compound 1-51, N-(1-(pyridin-4-ylmethyl)piperidin-4-yl)-6-(1-(4-(trifluoromethyl)phenyl)piperidin-4-yloxy)pyridine-3-sulfonamide], with 100 to 500 nM. `N#Cc1ccc(N2CCC(Oc3ccc(S(=O)(=O)NC4CCN(Cc5ccncc5)CC4)cn3)CC2)cc1` [Compound 1-52, N-(1-(pyridin-4-ylmethyl)piperidin-4-yl)-6-(1-(4-cyanophenyl)piperidin-4-yloxy)pyridine-3-sulfonamide] yielded an EC50 of 100 to 500 nM.

For `N#Cc1ccc(CN2CCC(Oc3ccc(S(=O)(=O)NC4CCN(Cc5ccncc5)CC4)cn3)CC2)cc1` [Compound 1-53, 6-(1-(4-cyanobenzyl)piperidin-4-yloxy)-N-(1-(pyridin-4-ylmethyl)piperidin-4-yl)pyridine-3-sulfonamide], the EC50 lay within 100 to 500 nM. Then `CC(C)(C)OC(=O)N1CCC(NS(=O)(=O)c2ccc(OC3CCN(c4ccc(C(F)(F)F)cc4)CC3)nc2)CC1` [Compound 1-54, tert-butyl 4-(6-(1-(4-(trifluoromethyl)phenyl)piperidin-4-yloxy)pyridine-3-sulfonamido) piperidine-1-carboxylate], with 1000 to 5000 nM; and `O=S(=O)(NC1CCNCC1)c1ccc(OC2CCN(c3ccc(C(F)(F)F)cc3)CC2)nc1` [Compound 1-55, N-(piperidin-4-yl)-6-(1-(4-(trifluoromethyl)phenyl)piperidin-4-yloxy)pyridine-3-sulfonamide], with 1000 to 5000 nM. Then `N#Cc1ccc(CN2CCC(NS(=O)(=O)c3ccc(OC4CCN(c5ccc(C(F)(F)F)cc5)CC4)nc3)CC2)cc1` [Compound 1-56, N-(1-(4-cyanobenzyl)piperidin-4-yl)-6-(1-(4-(trifluoromethyl)phenyl)piperidin-4-yloxy)pyridine-3-sulfonamide], with 5000 to 10000 nM; and `N#Cc1cccc(CN2CCC(NS(=O)(=O)c3ccc(OC4CCN(c5ccc(C(F)(F)F)cc5)CC4)nc3)CC2)c1` [Compound 1-57, N-(1-(3-cyanobenzyl)piperidin-4-yl)-6-(1-(4-(trifluoromethyl)phenyl)piperidin-4-yloxy)pyridine-3-sulfonamide], with 500 to 1000 nM.

For the origin of these results see US9409884B2 (Rigel Pharmaceuticals, Inc., priority 2012, dated 2016).
